Assay results taken from US10047386B2, “Biomarker for abdominal aortic aneurysm” (THE REGENTS OF THE UNIVERSITY OF CALIFORNIA, priority 2011, dated 2018).
Several values for one entry are separate records, joined by “and”; a condition that tells them apart may be missing. Equal values may be shown once. Entries after “also recorded” stand apart in the source; their conditions may differ.

Legend:
Format in all cases: in vivo
hph-1 mice [1] = test: Ultrasound detection of abdominal aorta size, hph-1 mice; settings: Ang II infusion, day 0 values 0.37 (Ang II) and 0.39 (FA)
Description: (§1) Animals were anesthetized with isoflurane and placed on a temperature-controlled table, which also measures ECG for heart rate. Isoflurane levels were adjusted throughout the experiment to maintain heart rate between 400 and 500 bpm while keeping the animal sufficiently anesthetized. Hair was removed from the abdomen using a hair removal cream, and preheated ultrasound transmission gel was applied onto the abdomen area. An ultrasound probe (Velvo 770, Visualsonics) was placed on the gel to visualize aorta transversely. The aorta was identified using Doppler measurement for the presence of pulsatile flow. […] Images were recorded and saved onto a PC computer for offline area analysis. Hematoxylin-eosin and Verhoeff-Van Gieson stainings were conducted following standard histological protocols.

aortic H4B [2] = test: HPLC determination of aortic H4B content, hph-1 mice; settings: for aortic levels of H4B: hph-1 mice, Example 3, n=3 each (vehicle 1.87±0.25)
Procedure: (§2) Animals were given 1 week to recover from the surgery. After this period, blood pressure was measured for 3 days to obtain a baseline. The osmotic pumps were then implanted on day 10 after surgery. Measurements were made daily from 9:00 AM to 4:00 PM at a 250-Hz sampling rate. Average blood pressure was calculated daily as the average of the entire recording period. The use of animals and experimental procedures were approved by the institutional animal care and usage committee at the University of California Los Angeles. Electron spin resonance determination of aortic NO and superoxide production, high-performance liquid chromatography determination of aortic H4B content, and Western blot determination of endothelial DHFR expression were performed as published previously.^1,2,5
(§3) H4B levels are measured using a HPLC system as previously described. Briefly, aorta samples are lysed with trichloroacetic acid and DTT, subjected to acidic or alkalytic oxidation, and H4B and its oxidized species are detected with a fluorescent detector after separation in the HPLC system (Shimadzu).

aortic H4B [3] = test: HPLC determination of aortic H4B, apoE null mice; settings: n=6 (vehicle 4.86±0.32)
Procedure: as §3
(§4) Also investigated was whether FA supplementation as used above leads to improved H4B availability both in the circulation and in the vascular tissues. Ang II-infused apoE null or hph-1 mice are treated with diets supplemented with FA, and circulating and aortic H4B contents are determined using HPLC at different time points of 1, 2, 3 and 4 wks. […] It is established that it takes 3-4 weeks for AAA to develop in Ang II-infused apoE null mice, and at these time points, circulating and tissues H4B levels were indeed decreased, but restored by FA treatment (FIGS. 9-10).

MMP9 = test: MMP activity zymography of aortas, MMP9, hph-1 mice
Procedure: (§5) Formalin-fixed and paraffin-embedded tissue were sectioned at 5 μm. Paraffin was removed by washing with xylene and then rehydrated with descending concentrations of ethanol. Antigen retrieval was performed by immersing the sections in an antigen retrieval buffer ([…] of citric acid, 0.01% Tween 20) at 98.5° C. for 20 minutes. Sections were washed in PBS plus 0.1% triton (PBS-T) and then blocked with 2% normal goat serum in PBS-T at room temperature for 3 hours. Sections were then incubated with primary antibody (Mac-3, BD Pharmingen, 2%, in PBS-T) overnight at 4° C. After washing with PBS-T for 1 hour, sections were incubated with secondary antibody (Alexa fluor 488, 2% in PBS-T) for 2 hours at room temperature in the dark. After washing with PBS-T for 1 hour, sections were dehydrated with ascending grades of ethanol and then xylene. Sections were mounted with Permount medium and pictures taken with a confocal microscope (Leica, SP1 inverted). MMP activity assays were performed as published previously.^22
(§6) An increase in MMP activity is one of the hallmarks of AAA development. Therefore, MMP activity can be measured using a zymography technique described in detail in other studies. Briefly, aortic lysates are loaded to gelatin infused SDS-PAGE gels. After electrophoresis, gelatin in the gel is digested by MMP in the loaded samples by incubating the gel in 37° C. overnight. […]

hph-1 mice [4] = test: Mean blood pressure by intracarotid telemetry, hph-1 mice
Procedure: (§7) The hph-1 mice (originally in CBA background)^19 were backcrossed with C57BL6 mice for >10 generations and genotyped based on a protocol by Khoo et al.^21 Only homozygote hph-1 mice in C57BL6 background were used for experiments. WT and hph-1 male mice at 24 weeks of age were infused with Ang II (0.7 mg/kg per day) using subcutaneously implanted osmotic pumps (Durect Corp). During the 14-day infusion, blood pressure was monitored by telemetry method. Wireless blood pressure probes were implanted into the animals 10 days before the implantation of the osmotic pumps. The catheter of the blood pressure probe was inserted into the left carotid artery, whereas the body of the probe was inserted into the right flank.
as §2, with “Electron spin resonance determination of aortic NO and superoxide production, high-performance liquid chromatography determination of aortic H4B content, and Western blot determination of endothelial DHFR expression were performed as published previously.^1,2,5” left out

hph-1 mice [5] = test: AAA formation in Ang II-infused hph-1 mice; settings: for AAA total morbidity / incidence rate: Ang II 0.7 mg/kg per day for 14 days, FA 15 mg/kg per day oral where given
Procedure: as §7
(§8) WT and hph-1 mice were started on continuous oral administration of FA (15 mg/kg per day) or tail vein transfection of DHFR expression vector (pcDNA3.1-DHFR)5 in lipid-based reagent from Altogen Biosystems every other day for 14 days, starting 2 days before Ang II infusion. The mice were monitored twice per day during the infusion period of 2 weeks, and aortas were harvested for assessment of AAA formation, endothelial DHFR expression, and eNOS uncoupling activity by day 14. Animals that died suddenly during the infusion period of 14 days were inspected for aneurysm immediately and aortas were freshly harvested for experiments.

MMP2 [6] = test: MMP activity zymography of aortas, MMP2, WT mice
Procedure: as §5, §6

endothelial DHFR = test: Western blot of endothelial DHFR expression in aortic preparations, hph-1 mice; settings: Ang II infusion 14 days
Procedure: as §2
On harvest, whole aorta was cut open longitudinally and then digested with collagenase (0.6 mg/mL) at 37° C. for 20 minutes before gentle removal of endothelial cells with a cotton applicator. The supernatant containing endothelial cells was centrifuged and lysed for Western blot analysis.

apoE null mice = test: AAA formation in Ang II-infused apoE null mice; settings: for number of mice with AAA / number of mice with No AAA: Ang II 4 weeks, FA 15 mg/kg/day where given
Procedure: Animals were fed normal chow or customized FA chew (15 mg/kg/day) two days prior to Ang II infusion and throughout the study period of 4 weeks. Of note, 24 out of 26 Ang II infused apoE null mice (92.3%) on normal chow developed AAA (FIG. 11). […] L-NAME sensitive superoxide production, which reflects eNOS uncoupling activity, was also measured.
For this study, apoE null male animals were infused with Ang II for 4 weeks, which has been shown in literature to reliably produce AAA in 90-100% of the animals. One group of animals is fed food mixed with FA. AAA development is monitored using a noninvasive ultrasound technique during the infusion period. At the end of the four weeks, aortas from the animals were harvested and histology or biochemical assays were performed to assess for various markers of AAA and eNOS functional state.
Animals were either given regular chow, or food pellets made in house mixed with FA (15 mg/kg/day). Aorta are carefully dissected and cleaned of connective tissue from the animals after euthanasia. Blood samples (˜0.1 mL) are collected from each animal on a weekly basis and after euthanasia.
The development of AAA is monitored noninvasively via an ultrasound imaging system (Vevo 770, Visualsonics) during the Ang II-infusion period. The abdominal aortas were imaged transversely and identified via Doppler measurements for the presence of a major pulsatile flow. […] Aorta size is later measured offline from images captured. Two measurements per week after Ang II infusion, as well as two measurements before the Ang II infusion (for control) are made. AAA is defined as an enlargement of the abdominal aorta by at least 50%, and later confirmed at the experimental end point. The AAA incidence for this model was also assessed by direct inspection of abdominal aorta at time of harvest, or post-mortem in those died of sudden rupture.

hph-1 mice [7] = test: Aortic histology (H&E, VVG, macrophage staining), hph-1 mice; settings: for infiltrating macrophages: Ang II-infused mice
Description: as §1, §5

WT mice [8] = test: Mean blood pressure by intracarotid telemetry, WT mice
Procedure: as §7
as §2, with “Electron spin resonance determination of aortic NO and superoxide production, high-performance liquid chromatography determination of aortic H4B content, and Western blot determination of endothelial DHFR expression were performed as published previously.^1,2,5” left out

aortic H4B [9] = test: HPLC determination of aortic H4B content, WT mice; settings: Ang II-infused WT mice, FA 15 mg/kg per day
Procedure: as §2, §3

plasma H4B [10] = test: HPLC determination of plasma H4B, apoE null mice; settings: n=6 each (vehicle 3.31±0.13)
Procedure: as §3
(§9) Blood samples are collected from Ang II-infused apoE null and hph-1 animals. Approximately 0.1 mL of blood is collected from each animal from the tail vein on a weekly basis. HPLC is used to determine the concentration of H4B in the blood samples as outlined above.
as §4

MMP2 [11] = test: MMP activity zymography of aortas, MMP2, hph-1 mice
Procedure: as §5, §6

plasma H4B [12] = test: HPLC determination of plasma H4B, hph-1 mice; settings: n=3 each (vehicle 1.37±0.05)
Procedure: as §3, §9, §4

WT mice [13] = test: Ultrasound detection of abdominal aorta size, WT mice; settings: Ang II infusion, day 0 value 0.53
Description: as §1

eNOS [14] = test: ESR aortic superoxide production with or without L-NAME (eNOS uncoupling), apoE null mice
Procedure: L-NAME sensitive superoxide production, which reflects eNOS uncoupling activity, was also measured.
The functional state of eNOS is assessed in lysed aortic samples by measuring superoxide production in the presence or absence of L-NAME using electron spin resonance (ESR, from Bruker). Under normal conditions where eNOS is coupled, the addition of the eNOS inhibitor L-NAME will increase superoxide production, as eNOS is normally producing NO to scavenge superoxide. However, under eNOS uncoupled conditions where eNOS is producing superoxide, the addition of L-NAME will decrease superoxide production. This direction of change in superoxide production will allow for an accurate assessment of eNOS function in the aortas of the animals.

WT mice [15] = test: AAA formation in Ang II-infused wild-type mice; settings: Ang II 0.7 mg/kg per day, 14 days
Procedure: as §7, §8

eNOS [16] = test: ESR aortic superoxide production with or without L-NAME (eNOS uncoupling), hph-1 mice; settings: Ang II-infused hph-1 mice
Procedure: as §2
(§10) The mice were monitored twice per day during the infusion period of 2 weeks, and aortas were harvested for assessment of AAA formation, endothelial DHFR expression, and eNOS uncoupling activity by day 14. Animals that died suddenly during the infusion period of 14 days were inspected for aneurysm immediately and aortas were freshly harvested for experiments.

eNOS [17] = test: ESR aortic superoxide production with or without L-NAME (eNOS uncoupling), WT mice; settings: Ang II-infused WT mice
Procedure: as §2, §10

[18] = Ang II-infused hph-1 mice, FA 15 mg/kg per day

Molecule: Nc1nc2ncc(CNc3ccc(C(=O)N[C@@H](CCC(=O)O)C(=O)O)cc3)nc2c(=O)[nH]1 [FA, folic acid]
- abdominal aorta cross-sectional area at day 14 (hph-1 mice [1]): 0.52 mm^2
- aortic H4B levels (aortic H4B [2]; [18]): even higher than baseline
- aortic levels of H4B (aortic H4B [2]): 3.00 ± 0.64 pmol/mg
- aortic H4B levels (aortic H4B [3]): 6.60 ± 0.62 pmol/mg
- Ang II-induced MMP9 activation (MMP9): attenuated
- effect on MBP decline (hph-1 mice [4]; [18]): prevented the decline
- AAA formation (hph-1 mice [5]; Ang II-infused hph-1 mice, 14 days, oral FA 15 mg/kg per day or DHFR vector tail vein transfection every other day): completely prevented and none
- AAA total morbidity / incidence rate (hph-1 mice [5]; hph-1 mice): 0%
- Ang II-induced MMP2 activation (MMP2 [6]): inhibited
- endothelial DHFR expression (endothelial DHFR): restored
- AAA incidence (apoE null mice; Ang II 1000 ng/kg/min for 4 weeks, FA 15 mg/kg/day in food where given): 16.7% and 17%
- number of mice with AAA (apoE null mice): 4
- number of mice with No AAA (apoE null mice): 20
- medial degradation and adventitial inflammatory cell recruitment, H&E staining (hph-1 mice [7]; Ang II-infused hph-1 mice): abrogated
- medial elastin flattening and rarefaction of elastin fibers, VVG staining (hph-1 mice [7]; Ang II-infused hph-1 mice): attenuated
- infiltrating macrophages (hph-1 mice [7]): completely attenuated
- effect on Ang II-induced hypertension (WT mice [8]; Ang II-infused WT mice, FA 15 mg/kg per day): highly effective in attenuating
- aortic H4B levels (aortic H4B [9]): even higher than baseline
- plasma H4B (plasma H4B [10]): 5.80 ± 0.30 pmol/mg
- Ang II-induced MMP2 activation (MMP2 [11]): attenuated
- plasma levels of H4B (plasma H4B [12]): 2.36 ± 0.25 pmol/mg

Molecule: angiotensin II (DRVYIHPF; Angiotensin-2; UniProt P11859 25-32, looked up) [Ang II, angiotensin II infused by osmotic pump to induce AAA and eNOS uncoupling in mice]
- abdominal aorta cross-sectional area at day 14 (hph-1 mice [1]): 1.96 mm^2
- abdominal aorta cross-sectional area at day 14 (WT mice [13]): 0.66 mm^2
- aortic levels of H4B (aortic H4B [2]): 0.99 ± 0.11 pmol/mg
- aortic H4B levels (aortic H4B [3]): 2.72 ± 0.26 pmol/mg
- L-NAME sensitive superoxide production (eNOS uncoupling activity), fold (eNOS [14]; Ang II 4 weeks (baseline 1.17±0.06)): 2.22±0.2 fold
- L-NAME-sensitive superoxide production (eNOS [14]; Ang II 4 weeks, FA 15 mg/kg/day where given): markedly increased
- aortic superoxide production, fold increase (eNOS [14]; Ang II 4 weeks, n=6 each): 2.67±0.15 fold
- mean blood pressure (MBP) (hph-1 mice [4]; hph-1 mice, day 6 of Ang II infusion (baseline 112±3)): 140±2 mm Hg
- AAA total morbidity / incidence rate (hph-1 mice [5]; hph-1 mice): 79%
- no-AAA rate (hph-1 mice [5]; hph-1 mice, Ang II 0.7 mg/kg per day, 14 days): 21%
- died or developed AAA (WT mice [15]): none
- endothelial DHFR expression (endothelial DHFR): further reduced
- number of mice with AAA (apoE null mice): 24
- number of mice with No AAA (apoE null mice): 2
- eNOS uncoupling / L-NAME-sensitive O2•− production (eNOS [16]): further uncoupled; also recorded: progressive uncoupling
- eNOS uncoupling / L-NAME-sensitive O2•− production (eNOS [17]): remained steady
- infiltrating macrophages (hph-1 mice [7]): dramatically upregulated
- mean blood pressure (MBP) (WT mice [8]; WT mice, day 6 of Ang II infusion (baseline 101±3)): 140±2 mm Hg
- plasma H4B (plasma H4B [10]): 1.87 ± 0.11 pmol/mg
- plasma levels of H4B (plasma H4B [12]): 0.92 ± 0.06 pmol/mg
